Laboratory results taken from US8450270B2 (Indiana University Research and Technology Corporation, priority 2008, dated 2013).
Square brackets hold non-standard residues; d marks the D form. Peptide text beside a SMILES is read from it. Dab = NCC[C@H](N)C(=O)O; Aib = CC(C)(N)C(=O)O

Target: Glucagon Receptor (Homo sapiens, UniProt P47871)
Experiment: Functional assay-cAMP synthesis (luciferase reporter, HEK293), glucagon receptor
Settings: for % activity*: glucagon receptor
[1] = EC50 at Glucagon Receptor (nM), Table 7

Chain of Glucagon Receptor (P47871 26-477): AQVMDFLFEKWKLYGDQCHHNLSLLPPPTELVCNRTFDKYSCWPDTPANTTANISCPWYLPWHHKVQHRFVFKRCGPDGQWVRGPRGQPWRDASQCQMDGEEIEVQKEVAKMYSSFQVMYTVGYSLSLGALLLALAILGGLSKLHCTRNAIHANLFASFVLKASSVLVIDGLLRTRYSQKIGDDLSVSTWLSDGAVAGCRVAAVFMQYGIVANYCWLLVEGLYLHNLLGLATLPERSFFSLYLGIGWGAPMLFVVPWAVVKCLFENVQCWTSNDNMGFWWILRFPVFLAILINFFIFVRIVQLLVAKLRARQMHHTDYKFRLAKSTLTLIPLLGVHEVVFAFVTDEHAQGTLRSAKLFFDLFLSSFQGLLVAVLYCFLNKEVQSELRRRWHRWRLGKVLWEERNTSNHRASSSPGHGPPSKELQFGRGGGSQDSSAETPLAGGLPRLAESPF

Row | EC50 [1] | % activity* (Table 7) | SMILES | other results
1 | 0.48 nM | 13% | CCCC[C@H](NC(=O)[C@H](CC(C)C)NC(=O)[C@H](Cc1c[nH]c2ccccc12)NC(=O)[C@H](C)NC(=O)[C@@H](NC(=O)[C@H](Cc1ccccc1)NC(=O)[C@H](CCC(=O)O)NC(=O)[C@H](C)NC(=O)[C@H](C)NC(=O)[C@H](CCCNC(=N)N)NC(=O)[C@H](CCCNC(=N)N)NC(=O)[C@@H](NC(=O)[C@H](CC(=O)O)NC(=O)[C@H](CC(C)C)NC(=O)[C@H](Cc1ccc(O)cc1)NC(=O)[C@H](CCCCN)NC(=O)[C@H](CO)NC(=O)[C@H](Cc1ccc(O)cc1)NC(=O)[C@H](CC(=O)O)NC(=O)[C@H](CO)NC(=O)[C@@H](NC(=O)[C@H](Cc1ccccc1)NC(=O)[C@@H](NC(=O)CNC(=O)[C@H](CNC(N)=O)NC(=O)[C@H](CO)NC(=O)[C@@H](N)Cc1c[nH]cn1)[C@@H](C)O)[C@@H](C)O)[C@@H](C)O)C(C)C)C(=O)N[C@@H](CC(=O)O)C(=O)N[C@@H](CCC(=O)O)C(=O)O [SEQ ID NO: 64] | –
2 | – | 7% | CCCC[C@H](NC(=O)[C@H](CC(C)C)NC(=O)[C@H](Cc1c[nH]c2ccccc12)NC(=O)[C@H](C)NC(=O)[C@@H](NC(=O)[C@H](Cc1ccccc1)NC(=O)[C@H](CCC(=O)O)NC(=O)[C@H](C)NC(=O)[C@H](C)NC(=O)[C@H](CCCNC(=N)N)NC(=O)[C@H](CCCNC(=N)N)NC(=O)[C@@H](NC(=O)[C@H](CC(=O)O)NC(=O)[C@H](CC(C)C)NC(=O)[C@H](Cc1ccc(O)cc1)NC(=O)[C@H](CCCCN)NC(=O)[C@H](CO)NC(=O)[C@H](Cc1ccc(O)cc1)NC(=O)[C@H](CC(=O)O)NC(=O)[C@H](CO)NC(=O)[C@@H](NC(=O)[C@H](Cc1ccccc1)NC(=O)[C@@H](NC(=O)CNC(=O)[C@H](CC[S+](C)[O-])NC(=O)[C@H](CO)NC(=O)[C@@H](N)Cc1c[nH]cn1)[C@@H](C)O)[C@@H](C)O)[C@@H](C)O)C(C)C)C(=O)N[C@@H](CC(=O)O)C(=O)N[C@@H](CCC(=O)O)C(=O)O (some centres unmarked) [SEQ ID NO: 66] | –
3 | – | 15% | CSCC[C@H](NC(=O)[C@H](CC(C)C)NC(=O)[C@H](Cc1c[nH]c2ccccc12)NC(=O)[C@H](C)NC(=O)[C@@H](NC(=O)[C@H](Cc1ccccc1)NC(=O)[C@H](CC(=O)O)NC(=O)[C@H](C)NC(=O)[C@H](C)NC(=O)[C@H](CCCNC(=N)N)NC(=O)[C@H](CCCNC(=N)N)NC(=O)C(C)(C)NC(=O)[C@H](CC(=O)O)NC(=O)[C@H](CC(C)C)NC(=O)[C@H](Cc1ccc(O)cc1)NC(=O)[C@H](CCCCN)NC(=O)[C@H](CO)NC(=O)[C@H](Cc1ccc(O)cc1)NC(=O)[C@H](CC(=O)O)NC(=O)[C@H](CO)NC(=O)[C@@H](NC(=O)[C@H](Cc1ccccc1)NC(=O)[C@@H](NC(=O)CNC(=O)[C@H](CCC(N)=O)NC(=O)[C@H](CO)NC(=O)[C@@H](N)Cc1c[nH]cn1)[C@@H](C)O)[C@@H](C)O)C(C)C)C(=O)N[C@@H](CC(=O)O)C(=O)N[C@@H](CCC(=O)O)C(=O)O [SEQ ID NO: 68] | –
4 | – | 19% | CCCC[C@H](NC(=O)[C@H](CC(C)C)NC(=O)[C@H](Cc1c[nH]c2ccccc12)NC(=O)[C@H](C)NC(=O)[C@@H](NC(=O)[C@H](Cc1ccccc1)NC(=O)[C@H](CCC(=O)O)NC(=O)[C@H](C)NC(=O)[C@H](C)NC(=O)[C@H](CCCNC(=N)N)NC(=O)[C@H](CCCNC(=N)N)NC(=O)[C@@H](NC(=O)[C@H](CC(=O)O)NC(=O)[C@H](CC(C)C)NC(=O)[C@H](Cc1ccc(O)cc1)NC(=O)[C@H](CCCCN)NC(=O)[C@H](CO)NC(=O)[C@H](Cc1ccc(O)cc1)NC(=O)[C@H](CC(=O)O)NC(=O)[C@H](CO)NC(=O)[C@@H](NC(=O)[C@H](Cc1ccccc1)NC(=O)[C@@H](NC(=O)CNC(=O)[C@H](CCNC(C)=O)NC(=O)[C@H](CO)NC(=O)[C@@H](N)Cc1c[nH]cn1)[C@@H](C)O)[C@@H](C)O)[C@@H](C)O)C(C)C)C(=O)N[C@@H](CC(=O)O)C(=O)N[C@@H](CCC(=O)O)C(=O)O [SEQ ID NO: 63] | –
5 | 0.48 nM | 13% | CCCC[C@H](NC(=O)[C@H](CC(C)C)NC(=O)[C@H](Cc1c[nH]c2ccccc12)NC(=O)[C@H](C)NC(=O)[C@@H](NC(=O)[C@H](Cc1ccccc1)NC(=O)[C@H](CCC(=O)O)NC(=O)[C@H](C)NC(=O)[C@H](C)NC(=O)[C@H](CCCNC(=N)N)NC(=O)[C@H](CCCNC(=N)N)NC(=O)[C@@H](NC(=O)[C@H](CC(=O)O)NC(=O)[C@H](CC(C)C)NC(=O)[C@H](Cc1ccc(O)cc1)NC(=O)[C@H](CCCCN)NC(=O)[C@H](CO)NC(=O)[C@H](Cc1ccc(O)cc1)NC(=O)[C@H](CC(=O)O)NC(=O)[C@H](CO)NC(=O)[C@@H](NC(=O)[C@H](Cc1ccccc1)NC(=O)[C@@H](NC(=O)CNC(=O)[C@H](CCC(=O)NC)NC(=O)[C@H](CO)NC(=O)[C@@H](N)Cc1c[nH]cn1)[C@@H](C)O)[C@@H](C)O)[C@@H](C)O)C(C)C)C(=O)N[C@@H](CC(=O)O)C(=O)N[C@@H](CCC(=O)O)C(=O)O [SEQ ID NO: 65] | –

Further lines, the molecule ahead of its results:

Row | SMILES | EC50 [1] | % activity* (Table 7) | other results
6 | CCCCCCCCCCCCCCCC(=O)NCCCCCC(=O)NCCCC[C@H](NC(=O)[C@H](CC(=O)O)NC(=O)[C@H](CO)NC(=O)[C@@H](NC(=O)[C@H](Cc1ccccc1)NC(=O)[C@@H](NC(=O)CNC(=O)[C@H](CCC(N)=O)NC(=O)C(C)(C)NC(=O)[C@@H](N)Cc1c[nH]cn1)[C@@H](C)O)[C@@H](C)O)C(=O)N[C@@H](CO)C(=O)N[C@@H](CCCCN)C(=O)N[C@@H](Cc1ccc(O)cc1)C(=O)N[C@@H](CC(C)C)C(=O)N[C@@H](CC(=O)O)C(=O)NC(C)(C)C(=O)N[C@@H](CCCNC(=N)N)C(=O)N[C@@H](CCCNC(=N)N)C(=O)N[C@@H](C)C(=O)N[C@@H](CCC(N)=O)C(=O)N[C@@H](CC(=O)O)C(=O)N[C@@H](Cc1ccccc1)C(=O)N[C@H](C(=O)N[C@@H](CCC(N)=O)C(=O)N[C@@H](Cc1c[nH]c2ccccc12)C(=O)N[C@@H](CC(C)C)C(=O)N[C@@H](CCSC)C(=O)N[C@@H](CC(N)=O)C(=O)N[C@H](C(N)=O)[C@@H](C)O)C(C)C [Peptide 85, HXQGTFTSDKSKYLDXRRAQDFVQWLMNT-NH2] | – | – | EC50 (EC50 at Glucagon Receptor (nM), Table 10): 0.01 nM
7 | CCCC[C@H](NC(=O)[C@H](CC(C)C)NC(=O)[C@H](Cc1c[nH]c2ccccc12)NC(=O)[C@H](C)NC(=O)[C@@H](NC(=O)[C@H](Cc1ccccc1)NC(=O)[C@H](CCC(=O)O)NC(=O)[C@H](C)NC(=O)[C@H](C)NC(=O)[C@H](CCCNC(=N)N)NC(=O)[C@H](CCCNC(=N)N)NC(=O)[C@@H](NC(=O)[C@H](CC(=O)O)NC(=O)[C@H](CC(C)C)NC(=O)[C@H](Cc1ccc(O)cc1)NC(=O)[C@H](CCCCN)NC(=O)[C@H](CO)NC(=O)[C@H](Cc1ccc(O)cc1)NC(=O)[C@H](CC(=O)O)NC(=O)[C@H](CO)NC(=O)[C@@H](NC(=O)[C@H](Cc1ccccc1)NC(=O)[C@@H](NC(=O)CNC(=O)[C@H](CCC(N)=O)NC(=O)[C@H](CO)NC(=O)[C@@H](N)Cc1c[nH]cn1)[C@@H](C)O)[C@@H](C)O)[C@@H](C)O)C(C)C)C(=O)N[C@@H](CC(=O)O)C(=O)N[C@@H](CCC(=O)O)C(=O)O [SEQ ID NO: 61] | – | 25% | glucagon activity (cAMP induction) (FIG. 11): retains substantial glucagon activity
8 | CSCC[C@H](NC(=O)[C@H](CC(C)C)NC(=O)[C@H](Cc1c[nH]c2ccccc12)NC(=O)[C@H](CCC(N)=O)NC(=O)[C@@H](NC(=O)[C@H](Cc1ccccc1)NC(=O)[C@H](CC(=O)O)NC(=O)[C@H](CCC(N)=O)NC(=O)[C@H](C)NC(=O)[C@H](CCCNC(=N)N)NC(=O)[C@H](CCCNC(=N)N)NC(=O)[C@H](CO)NC(=O)[C@H](CC(=O)O)NC(=O)[C@H](CC(C)C)NC(=O)[C@H](Cc1ccc(O)cc1)NC(=O)[C@H](CCCCN)NC(=O)[C@H](CO)NC(=O)[C@H](Cc1ccc(O)cc1)NC(=O)[C@H](CC(=O)O)NC(=O)[C@H](CO)NC(=O)[C@@H](NC(=O)[C@H](Cc1ccccc1)NC(=O)[C@@H](NC(=O)CNC(=O)[C@H](CCC(N)=O)NC(=O)[C@H](CO)NC(=O)[C@@H](N)Cc1c[nH]cn1)[C@@H](C)O)[C@@H](C)O)C(C)C)C(=O)N[C@@H](CC(=O)O)C(=O)N[C@@H](CCC(=O)O)C(=O)O [D28, E29] | – | – | EC50 (EC50 at the glucagon receptor, Example 20): 0.06 nM
9 | CC(=O)NCC[C@H](NC(=O)[C@H](CO)NC(=O)[C@@H](N)Cc1c[nH]cn1)C(=O)NCC(=O)N[C@H](C(=O)N[C@@H](Cc1ccccc1)C(=O)N[C@H](C(=O)N[C@@H](CO)C(=O)N[C@@H](CC(=O)O)C(=O)N[C@@H](Cc1ccc(O)cc1)C(=O)N[C@@H](CO)C(=O)N[C@@H](CCCCN)C(=O)N[C@@H](Cc1ccc(O)cc1)C(=O)N[C@@H](CC(C)C)C(=O)N[C@@H](CC(=O)O)C(=O)NC(C)(C)C(=O)N[C@@H](CCCNC(=N)N)C(=O)N[C@@H](CCCNC(=N)N)C(=O)N[C@@H](C)C(=O)N[C@@H](C)C(=O)N[C@@H](CC(=O)O)C(=O)N[C@@H](Cc1ccccc1)C(=O)N[C@H](C(=O)N[C@@H](C)C(=O)N[C@@H](Cc1c[nH]c2ccccc12)C(=O)N[C@@H](CC(C)C)C(=O)N[C@@H](CC(C)C)C(=O)N[C@@H](CC(=O)O)C(=O)N[C@H](C(=O)NCC(=O)N1CCC[C@H]1C(=O)N[C@@H](CO)C(=O)N[C@@H](CO)C(=O)NCC(=O)N[C@@H](C)C(=O)N1CCC[C@H]1C(=O)N1CCC[C@H]1C(=O)N1CCC[C@H]1C(=O)N[C@@H](CO)C(N)=O)[C@@H](C)O)C(C)C)[C@@H](C)O)[C@@H](C)O [SEQ ID NO: 72] (H-HS[Dab](Ac)GTFTSDYSKYLD[Aib]RRAADFVAWLLDTGPSSGAPPPS-NH2; N-terminus assumed) | – | – | % activity* (Table 8, wildtype glucagon = 100): 113%
10 | CCCC[C@H](NC(=O)[C@H](CC(C)C)NC(=O)[C@H](Cc1c[nH]c2ccccc12)NC(=O)[C@H](C)NC(=O)[C@@H](NC(=O)[C@H](Cc1ccccc1)NC(=O)[C@H](CCC(=O)O)NC(=O)[C@H](C)NC(=O)[C@H](C)NC(=O)[C@H](CCCNC(=N)N)NC(=O)[C@H](CCCNC(=N)N)NC(=O)[C@@H](NC(=O)[C@H](CC(=O)O)NC(=O)[C@H](CC(C)C)NC(=O)[C@H](Cc1ccc(O)cc1)NC(=O)[C@H](CCCCN)NC(=O)[C@H](CO)NC(=O)[C@H](Cc1ccc(O)cc1)NC(=O)[C@H](CC(=O)O)NC(=O)[C@H](CO)NC(=O)[C@@H](NC(=O)[C@H](Cc1ccccc1)NC(=O)[C@@H](NC(=O)CNC(=O)[C@H](CSCNC(C)=O)NC(=O)[C@H](CO)NC(=O)[C@@H](N)Cc1c[nH]cn1)[C@@H](C)O)[C@@H](C)O)[C@@H](C)O)C(C)C)C(=O)N[C@@H](CC(=O)O)C(=O)N[C@@H](CCC(=O)O)C(=O)O [SEQ ID NO: 62] | 0.18 nM | 33% | –
